Laboratory results reported in patent US20210337839A1, “SYSTEM AND METHOD FOR RECO[…]” (Restrain Company Limited, priority 2020, published 2021).

Test system: fontane variety of potatoes
Method: There now follows a description of an experimental trial by the inventors
The goal of the trial was to recondition French fry tubers in a 2-3 week period to improve fry colour and maintain brittle sprouts.
3 trial cells were operated, each 85 cubic meters in size and holding fontane variety of potatoes. The stores holding each trial cell stores were warmed to 12.5° C.
A sample was taken from each cell. Each sample was made up of 25 tubers from the front and the back of the store. The tubers selected were showing signs of sprouting in some degree and have had variable and in some cases poor fry color results.
The first sample was sent for a benchmark Soleye fry colour measurement. Soleye is an optical colour reader used to determine fry colour.
Gradually reducing the ethylene level by 0.5 ppm per day from […] @ 12 C
First 7 days 4 ppm and from day 8 reduced to continuous 2 ppm @ 12 C

C=C [ethylene]
Soleye fry colour score (the lower the score, the better the fry colour) (after reconditioning, samples from store 64: continuous 2 ppm ethylene @ 12 C, FIG. 3): 0 | sprout condition following reconditioning (cells 56, 60 and 64, ethylene programmes at 12 C, 2-3 week period, all tubers): maintained brittle sprouts
